Test results published in patent US20250195521A1 (Revolution Medicines, Inc., priority 2020, published 2025).
Like-named read-outs stand apart in the source and are kept apart here.

Columns and labels:
[1] = target: KRAS WT (Homo sapiens (Human), UniProt P01116+P62937); assay: Ras-Raf disruption/FRET/MOA assay (BRAF RBD, Cyclophilin A); assay type: biochemical; conditions: read-out: KRAS WT FRET data IC50
Outline: (§1)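 25 μM tagless Cyclophilin A, 12.5 nM His6-Ras-GMPPNP and 50 nM GST-BRAF RBD in HEPES pH 7.3 buffer with 5 mM MgCl2, with compound (10-point 3-fold series from 30 μM final) for 3 h at 25 °C. Anti-His Eu and anti-GST APC then added for 1.5 h. IC50 from TR-FRET ratio decrease versus DMSO.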

[2] = target: KRAS G12V (Homo sapiens (Human), UniProt P01116+P62937, G12V); assay: as above; assay type: biochemical; conditions: read-out: KRAS G12V FRET IC50
Outline: as §1

[3] = target: NRAS G12C (Homo sapiens (Human), UniProt P01111+P62937, G12C); assay: as above; assay type: biochemical; conditions: read-out: NRAS G12C FRET data IC50
Outline: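 Measured: compound-facilitated Cyclophilin A:Ras complex blocking RAF RBD binding. Conditions: 12.5 nM Ras-GMPPNP, 50 nM BRAF RBD, 25 μM CypA, 3 h plus 1.5 h detection. Output: IC50 from TR-FRET ratio.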

[4] = target: KRAS G12S (Homo sapiens (Human), UniProt P01116+P62937, G12S); assay: as above; assay type: biochemical; conditions: read-out: KRAS G12S FRET IC50
Outline: as §1

[5] = target: KRAS G13C (Homo sapiens (Human), UniProt P01116+P62937, G13C); assay: as above; assay type: biochemical; conditions: read-out: KRAS G13C FRET IC50
Outline: as §1

[6] = target: KRAS G13D (Homo sapiens (Human), UniProt P01116+P62937, G13D); assay: as above; assay type: biochemical; conditions: read-out: KRAS G13D FRET data IC50
Outline: as §1

[7] = target: KRAS G12C (Homo sapiens (Human), UniProt P01116+P62937, G12C); assay: as above; assay type: biochemical; conditions: read-out: KRAS G12C FRET IC50
Outline: as §1

[8] = target: KRAS G12D (Homo sapiens (Human), UniProt P01116+P62937, G12D); assay: as above; assay type: biochemical; conditions: read-out: KRAS G12D FRET IC50
Outline: as §1

[9] = tested on: K-Ras G12C (NCI-H358 cells); assay: Potency assay: pERK in NCI-H358 cells; assay type: cell-based, human; conditions: Homo sapiens, read-out: pERK EC50 (H358 KRAS G12C)
Outline: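 Cells plated the day before were exposed for 4 h at 37° C, 5% CO2 to a 10-point, 3-fold DMSO dilution series (10 mM top stock), in duplicate. Phospho-ERK was read by AlphaLISA SureFire Ultra or by In-Cell Western with DRAQ5 DNA stain, and IC50 came from a 4-parameter sigmoidal fit.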

[10] = tested on: Capan-1 cells (K-Ras G12V); assay: CellTiter-Glo cell viability, Capan-1; assay type: cell-based, human; conditions: Homo sapiens, CAPAN-1, 120 h, read-out: Capan-1 Cell Viability IC50
Outline: (§2)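 Viability read by luminescence on day 5 after direct compound addition to cells, following ~30 min room-temperature equilibration. Values expressed as percent of mean DMSO signal, curves fitted with a four-parameter logistic model.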

[11] = tested on: NCI-H358 cells (K-Ras G12C); assay: CellTiter-Glo cell viability, NCI-H358; assay type: cell-based, human; conditions: Homo sapiens, NCI-H358, 120 h, read-out: H358 Cell Viability IC50
Outline: as §2

Sequence of KRAS G13C (P01116 other isoform, or with tags, fused parts or gaps G13C): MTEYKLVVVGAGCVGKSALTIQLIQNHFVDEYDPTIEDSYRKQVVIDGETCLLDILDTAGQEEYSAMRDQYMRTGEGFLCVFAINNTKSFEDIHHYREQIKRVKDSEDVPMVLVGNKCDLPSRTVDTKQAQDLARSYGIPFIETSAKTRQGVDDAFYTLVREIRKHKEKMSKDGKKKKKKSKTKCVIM
Sequence of KRAS G13C (P62937 whole entry): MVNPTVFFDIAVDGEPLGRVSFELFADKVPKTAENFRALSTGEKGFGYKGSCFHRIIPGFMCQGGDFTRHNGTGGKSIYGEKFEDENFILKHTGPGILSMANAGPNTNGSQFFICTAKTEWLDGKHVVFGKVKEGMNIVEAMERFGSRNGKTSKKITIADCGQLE
Sequence of KRAS G13D (P01116 other isoform, or with tags, fused parts or gaps G13D): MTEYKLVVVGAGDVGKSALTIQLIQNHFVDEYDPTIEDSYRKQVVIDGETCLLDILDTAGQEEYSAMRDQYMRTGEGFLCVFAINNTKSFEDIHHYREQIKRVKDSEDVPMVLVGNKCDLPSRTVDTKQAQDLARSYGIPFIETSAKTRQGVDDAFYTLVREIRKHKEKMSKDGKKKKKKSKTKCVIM
Sequence of KRAS G13D (P62937 whole entry): as the sequence (P62937 whole entry) above
Sequence of KRAS WT (P01116 other isoform, or with tags, fused parts or gaps): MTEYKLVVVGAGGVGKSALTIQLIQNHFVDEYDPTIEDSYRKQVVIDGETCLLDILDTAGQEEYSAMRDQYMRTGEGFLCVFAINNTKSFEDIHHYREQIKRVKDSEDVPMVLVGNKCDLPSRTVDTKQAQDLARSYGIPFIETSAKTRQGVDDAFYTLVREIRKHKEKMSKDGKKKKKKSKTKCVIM
Sequence of KRAS WT (P62937 whole entry): as the sequence (P62937 whole entry) above
Sequence of KRAS G12D (P01116 other isoform, or with tags, fused parts or gaps G12D): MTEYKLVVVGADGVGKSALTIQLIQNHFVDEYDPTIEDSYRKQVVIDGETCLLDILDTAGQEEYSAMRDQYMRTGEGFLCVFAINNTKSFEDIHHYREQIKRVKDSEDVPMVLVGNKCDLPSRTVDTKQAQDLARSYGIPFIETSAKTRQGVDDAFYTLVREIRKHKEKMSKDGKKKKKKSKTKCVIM
Sequence of KRAS G12D (P62937 whole entry): as the sequence (P62937 whole entry) above
Sequence of KRAS G12V (P01116 other isoform, or with tags, fused parts or gaps G12V): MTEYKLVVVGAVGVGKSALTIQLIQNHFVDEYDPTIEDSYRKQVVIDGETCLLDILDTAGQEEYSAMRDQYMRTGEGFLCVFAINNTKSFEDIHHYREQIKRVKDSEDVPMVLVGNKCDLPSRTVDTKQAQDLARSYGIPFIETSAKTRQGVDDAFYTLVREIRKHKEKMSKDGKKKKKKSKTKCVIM
Sequence of KRAS G12V (P62937 whole entry): as the sequence (P62937 whole entry) above
Sequence of NRAS G12C (P01111 whole entry G12C): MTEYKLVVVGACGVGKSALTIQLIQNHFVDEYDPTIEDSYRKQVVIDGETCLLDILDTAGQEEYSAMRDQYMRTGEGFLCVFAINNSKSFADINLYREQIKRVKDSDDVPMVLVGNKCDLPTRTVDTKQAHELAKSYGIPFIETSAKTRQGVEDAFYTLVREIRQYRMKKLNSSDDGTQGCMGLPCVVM
Sequence of NRAS G12C (P62937 whole entry): as the sequence (P62937 whole entry) above
Sequence of KRAS G12C (P01116-2 other isoform, or with tags, fused parts or gaps G12C): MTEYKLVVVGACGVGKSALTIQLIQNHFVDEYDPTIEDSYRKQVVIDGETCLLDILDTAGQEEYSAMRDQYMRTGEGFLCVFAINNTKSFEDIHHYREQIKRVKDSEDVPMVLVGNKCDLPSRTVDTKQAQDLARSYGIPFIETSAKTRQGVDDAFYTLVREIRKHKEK
Sequence of KRAS G12C (P62937 whole entry): as the sequence (P62937 whole entry) above
Sequence of KRAS G12S (P01116 other isoform, or with tags, fused parts or gaps G12S): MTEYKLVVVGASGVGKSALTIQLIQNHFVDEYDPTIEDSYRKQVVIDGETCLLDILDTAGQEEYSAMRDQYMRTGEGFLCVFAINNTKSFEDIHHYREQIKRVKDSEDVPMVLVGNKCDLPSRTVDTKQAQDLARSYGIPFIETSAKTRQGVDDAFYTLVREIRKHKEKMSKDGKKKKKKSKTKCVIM
Sequence of KRAS G12S (P62937 whole entry): as the sequence (P62937 whole entry) above

SMILES | IC50 [1] [nM] | IC50 [2] [nM] | IC50 [3] [nM] | IC50 [4] [nM] | IC50 [5] [nM] | IC50 [6] [nM] | IC50 [7] [nM] | IC50 [8] [nM] | EC50 ([9]; NCI-H358 cells, 4 hours) [µM] | IC50 ([11]; K-Ras G12C, 5-day treatment) [nM] | IC50 ([10]; K-Ras G12V, 5-day treatment) [nM] | EC50 ([9]; NCI-H358, 4 h) [µM] | IC50 [10] [nM] | IC50 [11] [nM]
CCn1c(-c2cnccc2COC)c2c3cc(ccc31)-c1cc(O)cc(c1)C[C@H](NC(=O)[C@H](C(C)C)N1CCCC1=O)C(=O)N1CCC[C@H](N1)C(=O)OCC(C)(C)C2 [Compound A40] | 100 to 1000 | 100 to 1000 | 100 to 1000 | 100 to 1000 | 100 to 1000 | 100 to 1000 | 100 to 1000 | 1000 to 10000 | < 5 | 1000 to 10000 | 1000 to 10000 | – | – | –
CCn1c(-c2cnccc2COC)c2c3cc(ccc31)-c1cc(O)cc(c1)C[C@H](NC(=O)[C@H](C(C)C)N(C)C(=O)[C@H]1CCCN1C)C(=O)N1CCC[C@H](N1)C(=O)OCC(C)(C)C2 [Compound A83] | 100 to 1000 | 100 to 1000 | 100 to 1000 | 100 to 1000 | 100 to 1000 | 100 to 1000 | 100 to 1000 | 100 to 1000 | < 5 | 1000 to 10000 | 1000 to 10000 | – | – | –
CCn1c(-c2cccnc2[C@H](C)OC)c2c3cc(ccc31)-c1csc(n1)C[C@H](NC(=O)[C@H](C(C)C)N(C)C(=O)N1CC3CC(C1)O3)C(=O)N1CCC[C@H](N1)C(=O)OCC(C)(C)C2 [Compound A301] | 100 to 1000 | 100 to 1000 | 100 to 1000 | 100 to 1000 | 1000 to 10000 | 1000 to 10000 | 100 to 1000 | 1000 to 10000 | – | – | – | < 5 | 100 to 1000 | 10 to 100

The next lines start with results.

IC50 [1] [nM] | IC50 [2] [nM] | IC50 [3] [nM] | IC50 [4] [nM] | IC50 [5] [nM] | IC50 [6] [nM] | IC50 [7] [nM] | IC50 [8] [nM] | EC50 ([9]; NCI-H358 cells, 4 hours) [µM] | IC50 ([11]; K-Ras G12C, 5-day treatment) [nM] | SMILES | IC50 ([10]; K-Ras G12V, 5-day treatment) [nM] | EC50 ([9]; NCI-H358, 4 h) [µM] | IC50 [10] [nM] | IC50 [11] [nM]
100 to 1000 | 100 to 1000 | 100 to 1000 | 100 to 1000 | 100 to 1000 | 100 to 1000 | 100 to 1000 | 1000 to 10000 | < 5 | 100 to 1000 | CCn1c(-c2cccnc2COC)c2c3cc(ccc31)-c1cc(O)cc(c1)C[C@H](NC(=O)[C@H](C(C)C)N(C)C(=O)OC1COC1)C(=O)N1CCC[C@H](N1)C(=O)OCC(C)(C)C2 [Compound A39] | 100 to 1000 | – | – | –
100 to 1000 | 1000 to 10000 | 100 to 1000 | 100 to 1000 | 10 to 100 | 10 to 100 | 100 to 1000 | 100 to 1000 | < 5 | 100 to 1000 | CCn1c(-c2cccnc2[C@H](C)OC)c2c3cc(ccc31)-c1cc(O)cc(c1)C[C@H](NC(=O)[C@H](C(C)C)N(C)C(=O)O[C@H]1CCN(C)C1)C(=O)N1CCC[C@H](N1)C(=O)OCC(C)(C)C2 [Compound A169] | 100 to 1000 | – | – | –
10 to 100 | 10 to 100 | 10 to 100 | 10 to 100 | 10 to 100 | 10 to 100 | 10 to 100 | 100 to 1000 | < 5 | 10 to 100 | CCn1c(-c2cccnc2[C@H](C)OC)c2c3cc(ccc31)-c1cc(O)cc(c1)C[C@H](NC(=O)[C@H](C(C)C)N(C)C(=O)[C@H]1CCN(C(=O)OC3CC3)C1)C(=O)N1CCC[C@H](N1)C(=O)OCC(C)(C)C2 [Compound A202] | 10 to 100 | – | – | –
10 to 100 | 10 to 100 | 10 to 100 | 10 to 100 | 10 to 100 | 10 to 100 | 10 to 100 | 10 to 100 | < 5 | 10 to 100 | CCn1c(-c2cccnc2[C@H](C)OC)c2c3cc(ccc31)-c1cc(O)cc(c1)C[C@H](NC(=O)[C@H](C(C)C)N(C)C(=O)C1CCc3ncccc3C1)C(=O)N1CCC[C@H](N1)C(=O)OCC(C)(C)C2 (some centres unmarked) [Compound A247] | 10 to 100 | – | – | –
